Results: US20090149533A1 (TransForm Pharmaceuticals, Inc., priority 2004, published 2009)
In brackets after ≈: the same amount, converted by molar mass.

Key:
[1] = in vivo; cited from earlier work
[2] = Solubility of fenofibrate in E463808-additive mixtures; assay type: physicochemical; settings: about 10% v/v additive; 25° C.
Procedure: Equilibrated samples were filtered using 0.2 micrometer PVDF syringe filters and diluted for assay. […] (Tween 85 is also known as polyoxyethylenesorbitan trioleate, Tween 80 is also known as polyoxyethylenesorbitan monooleate, Span 80 is also known as sorbitan monooleate, Span 85 is also known as sorbitan trioleate, and Cremophor EL is also known as polyoxyl castor oil.) Span 80, Span 85, and Tween 85 samples were analyzed using normal-phase HPLC. Cremophor EL, Tween 80, and replicates of Tween 85 samples were analyzed using UV measurements at 285 nm.

[3] = Equilibrium fenofibrate solubility in ethyl esters versus triglycerides; assay type: physicochemical; settings: fenofibrate solubility at 25 degrees C. in the vehicle given as label
[4] = Stability and compatibility of fenofibrate and E463808 (gradient HPLC); assay type: physicochemical; settings: 80 or 200 mg/mL in E463808, sealed vial or gelcap, 4 deg C. to 60 deg C., up to 8 weeks

Compound	effect of additive on fenofibrate solubility in E463808 [2]	further results
CC(C)(Oc1ccc(C(=O)c2ccc(Cl)cc2)cc1)C(=O)O [fenofibric acid]	–	elimination half-life [1]: approximately twenty
polyoxyethylenesorbitan monooleate [Tween 80®]	Slight enhancement in fenofibrate solubility	–
polyoxyl castor oil [Cremophor® EL]	Slight enhancement in fenofibrate solubility	–
CCCCC/C=C\C/C=C\CCCCCCCC(=O)OCC(COC(=O)CCCCCCC/C=C\C/C=C\CCCCC)OC(=O)CCCCCCC/C=C\C/C=C\CCCCC [Trilinolein]	–	Solubility [3]: 61.2 mg/mL (≈ 69.6 mM)
polyoxyethylenesorbitan trioleate [Tween 85®]	Slight enhancement in fenofibrate solubility	–
CC(C)OC(=O)C(C)(C)Oc1ccc(C(=O)c2ccc(Cl)cc2)cc1 [Fenofibrate, 2-[4-(4-chlorobenzoyl)phenoxy]-2-methyl-propanoic acid 1-methylethyl ester]	–	degradation of fenofibrate [4]: no degradation was observed
